Test results: PMC11374673, “Discovery of isoquinoline sulfonamides as allosteric gyrase inhibitors with activity against fluoroquinolone-resistant bacteria” (Nature Chemistry, 2024)
Values after ≈ are worked out from the molar mass of the structure shown. Values joined by “and” are separate entries in the source; they are usually repeats but may differ in a detail not shown here. Equal entries are not always repeated. Where two headings read alike, the source gives them in different places.

How the values were obtained:
[1] = target: T1, E. coli GyrA S97L/GyrB gyrase (Escherichia coli, UniProt P0AES4, S97L); test: Gyrase supercoiling inhibition, GyrA S97L variant; assay type: biochemical
T1 construct: represents the first full-length E. coli gyrase structure in complex with an intact DNA molecule; 10xHis; 2xStrep (Twin-Strep); made in house
Procedure: Of this stock solution, 27 µl was aliquoted for each reaction in 1.5 ml Eppendorf tubes and supplemented with 0.6 µl of the appropriate compound dilution or corresponding solvent with a final DMSO concentration of 2%. The reactions were started with 3 µl of enzyme (1 U for WT gyrase retrieved from Inspiralis Limited or 25–30 nM gyrase variants purified in house) in dilution buffer (50 mM Tris–HCl (pH 7.5), 100 mM KCl, 2 mM DTT, 1 mM EDTA and 50% (wt/vol) glycerol) for a final volume of 30 µl. Reactions were run at 37 °C for 30 min and stopped with the addition of 30 µl STEB buffer (40% (wt/vol) sucrose, 100 mM Tris–HCl pH 8, 100 mM EDTA, 0.5 mg ml^−1 bromophenol blue) and 30 µl of a chloroform:isoamyl alcohol solution (24:1 vol/vol). After brief vortexing and centrifugation at 2,300g for 1 min, 20 µl of the aqueous phase was loaded onto 1% (wt/vol) agarose gels in TAE (Tris–acetate […]) gel. The gels were run at 85 V for 2 h followed by staining (15 min) in 1 µg ml^−1 ethidium bromide and destaining (5–10 min) in water. DNA was visualized (602/50, UV Trans, auto optimal exposure) with a ChemiDoc MP (Bio-Rad Laboratories Inc., equipped with ImageLab Touch Software v2.0.0.27) and the percentage of supercoiled DNA relative to the total amount material per lane was determined with ImageLab 6.1 software (Bio-Rad Laboratories Inc.) or ImageJ[47] software. […]

[2] = system: E. coli BW25113 and single-gene knockouts; test: MIC on E. coli strains of the Keio collection; assay type: cell-based, Escherichia coli; settings: for MIC: Escherichia coli
Procedure: (§1) MIC was determined by broth microdilution. Single-colony cultures were grown to exponential phase (OD600 of 0.5) aerobically at 37 °C. In case of strains from the Keio collection, 50 µg ml^−1 kanamycin was supplemented to the media to ascertain a homogeneous population. The bacterial suspensions were diluted 100-fold in CAMHB and 50 µl was added to a twofold serial dilution series of test compounds (50 µl per well) in polypropylene 96-well microtitre plates to reach a volume of 100 µl. The plates were sealed with breathable membranes and incubated overnight at 37 °C with constant shaking (600 r.p.m.). The MIC was determined as the lowest concentration at which no visible bacterial growth was observed as compared with the inoculum controls from the median of a minimum of triplicates.

K. pneumoniae ATCC 29665 = test: MIC by broth microdilution; assay type: cell-based, Klebsiella pneumoniae
Method in brief: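 Exponential-phase cultures (OD600 0.5, 37 °C aerobic), diluted 100-fold in CAMHB, were added to twofold compound dilution series. Keio strains grown with 50 µg ml^−1 kanamycin. Plates incubated overnight at 37 °C, shaking at 600 r.p.m.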

[3] = system: 60-resistant (60-r) isolates of E. coli W3110; test: microbe, parasite or virus in culture; assay type: cell-based, Escherichia coli; settings: Escherichia coli
Procedure: as §1
The plates were incubated at 37 °C and checked for growth after 24 and 48 h. […] Nine colonies with an increased MIC were selected for further analysis and stored as glycerol stocks.

[4] = BW25113, JW3596 ΔrfaC, LPS disruption (genetic)
[5] = BW25113, read-out: MIC E. coli BW25113, parent strain

Row | SMILES | supercoiling inhibition of GyrA S97L variant [1] | potency against ΔtolC efflux pump mutant [2] | MIC ([2]; BW25113, JW3594 ΔrfaD) [µM] | MIC [2, 4] [µM] | MIC ([2]; BW25113, JW3600 ΔrfaY) [µM] | MIC ([2]; BW25113, JW3602 ΔrfaI) [µM] | MIC ([2]; BW25113, JW3605 ΔrfaP) [µM] | MIC ([2]; BW25113, JW5503 ΔTolC) [µM] | MIC [2, 5] [µM] | MIC (K. pneumoniae ATCC 29665; Klebsiella pneumoniae, ATCC29665, broth microdilution, read-out: MIC K. pneumoniae ATCC 29665) [µM] | MIC (K. pneumoniae ATCC 29665; broth microdilution, listed as LEI-801 (99), read-out: MIC K. pneumoniae ATCC 29665) [µM] | MIC ([3]; E. coli W3110 60-r1) | MIC ([3]; E. coli W3110 60-r3) | MIC ([3]; E. coli W3110 60-r6) | MIC (K. pneumoniae ATCC 29665; Klebsiella pneumoniae, ATCC29665, read-out: MIC K. pneumoniae ATCC 29665) [µM]
1 | O=S(=O)(NC[C@H]1CC[C@@H](c2ccc(-c3ccc(F)nc3)cc2)N1)c1cccc2cnccc12 [LEI-801] | highly resistant | No increase in potency | 3.1 (≈ 1.43 µg/mL) | 3.1 (≈ 1.43 µg/mL) | > 50 | > 50 | 12.5 (≈ 5.78 µg/mL) | > 50 | > 50 | > 50 | > 50 |  |  |  | 
2 | O=C(O)c1cn(C2CC2)c2cc(N3CCNCC3)c(F)cc2c1=O [CIP, ciprofloxacin] |  |  | > 0.048 | 0.024 (≈ 0.00795 µg/mL) | 0.024 (≈ 0.00795 µg/mL) | 0.024 (≈ 0.00795 µg/mL) | 0.048 (≈ 0.0159 µg/mL) | 0.024 (≈ 0.00795 µg/mL) | 0.024 (≈ 0.00795 µg/mL) |  |  | 0.024 µM and 0.0078 µg/mL | 0.024 µM and 0.0078 µg/mL | 0.024 µM and 0.0078 µg/mL | 0.012 (≈ 0.00398 µg/mL)
